The results in this text go back to ChEMBL document CHEMBL5727849, “Piperidinone formyl peptide 2 receptor and formyl peptide 1 receptor agonists” (2020).

The target in one assay is T1, fMet-Leu-Phe receptor (Homo sapiens, UniProt P21462).
T1 sequence (P21462 whole entry): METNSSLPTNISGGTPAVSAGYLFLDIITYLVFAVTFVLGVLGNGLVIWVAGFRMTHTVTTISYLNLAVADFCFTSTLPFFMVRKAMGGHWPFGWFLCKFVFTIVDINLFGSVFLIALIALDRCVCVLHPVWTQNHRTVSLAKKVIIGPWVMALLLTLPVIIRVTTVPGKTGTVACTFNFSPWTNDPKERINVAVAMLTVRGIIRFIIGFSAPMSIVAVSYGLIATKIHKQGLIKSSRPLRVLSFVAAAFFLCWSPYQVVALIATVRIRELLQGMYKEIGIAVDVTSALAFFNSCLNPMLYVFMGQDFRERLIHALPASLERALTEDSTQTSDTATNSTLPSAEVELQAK
Briefly: (§1) cAMP Assay: FPR2 and FPR1 Cyclic Adenosine Monophosphate (cAMP) Assays. A mixture of forskolin (5 μM final for FPR2 or 10 μM final for FPR1) and IBMX (200 μM final) were added to 384-well Proxiplates (Perkin-Elmer) pre-dotted with test compounds in DMSO (1% final) at final concentrations in the range of 0.020 nM to 100 μM. Chinese Hamster Ovary cells (CHO) overexpressing human FPR1 or human FPR2 receptors were cultured in F-12 (Ham's) medium supplemented with 10% qualified FBS, 250 μg/ml zeocin and 300 μg/ml hygromycin (Life Technologies). Reactions were initiated by adding 2,000 human FPR2 cells per well or 4,000 human FPR1 cells per well in Dulbecco's PBS (with calcium and magnesium) (Life Technologies) supplemented with 0.1% BSA (Perkin-Elmer). The reaction mixtures were incubated for 30 min at room temperature. The level of intracellular cAMP was determined using the HTRF HiRange cAMP assay reagent kit (Cisbio) according to manufacturer's instruction. Solutions of cryptate conjugated anti-cAMP and d2 flurorophore-labelled cAMP were made in a supplied lysis buffer separately. Upon completion of the reaction, the cells were lysed with equal volume of the d2-cAMP solution and anti-cAMP solution. After a 1-h room temperature incubation, time-resolved fluorescence intensity was measured using the Envision (Perkin-Elmer) at 400 nm excitation and dual emission at 590 nm and 665 nm. Format: cell-based. (In TR-FRET formats the signal depends on donor and acceptor labels being close together.)

For assay [1], the target named is T2, N-formyl peptide receptor 2 (Homo sapiens, UniProt P25090).
T2 sequence (P25090 whole entry): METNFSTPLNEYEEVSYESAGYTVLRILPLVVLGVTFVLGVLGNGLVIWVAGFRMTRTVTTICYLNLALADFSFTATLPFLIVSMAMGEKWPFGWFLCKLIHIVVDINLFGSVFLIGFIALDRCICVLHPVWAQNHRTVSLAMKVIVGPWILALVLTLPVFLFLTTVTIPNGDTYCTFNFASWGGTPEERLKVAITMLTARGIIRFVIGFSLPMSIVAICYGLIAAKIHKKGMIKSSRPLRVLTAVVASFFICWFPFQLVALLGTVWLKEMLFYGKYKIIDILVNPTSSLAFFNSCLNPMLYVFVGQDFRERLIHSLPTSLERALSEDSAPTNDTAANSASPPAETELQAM
Described as §1. Format: cell-based.

Take `NC(=O)c1ccccc1-c1ccc(N2CCC[C@@H](NC(=O)Nc3ccc(F)c(F)c3)C2=O)cc1`: the EC50 is 1700 nM on fMet-Leu-Phe receptor and 840 nM in assay [1].
On the same counts, the results for `O=C(Nc1ccc(Cl)cc1)N[C@@H]1CCCN(c2ccc(-c3c(Cl)cccc3Cl)cc2)C1=O` are 14 nM and 11 nM.

Usually EC50 stands for the concentration giving half of the maximal effect.
